From PubChem BioAssay AID248 (DTP/NCI, 2004)
Toxic doses and inconclusive results are not listed. Cut-off read from the data, not from the text of the source: active = T/C of 150% or more; inactive = T/C below 125%.

Tested on: L1210 leukemia ip in BDF1 mice, survival T/C
Assay: NCI In Vivo Anticancer Drug Screen. Data for tumor model L1210 Leukemia (intraperitoneal) in B6D2F1 (BDF1) mice
Settings: endpoint: mean survival time, higher = longer survival
In short: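 In this screen, tumor-bearing mice given compound are compared to those given vehicle, and their survival values are reported as a treated-to-control quotient.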

[1] = dose: 100.0 mg/kg/injection, schedule: Q01DX009 (ip), vehicle: saline with Tween-80
[2] = dose: 100.0 mg/kg/injection, schedule: Q04DX003 (ip), vehicle: saline with Tween-80
[3] = dose: 200.0 mg/kg/injection, schedule: Q01DX009 (ip), vehicle: saline with Tween-80
[4] = dose: 200.0 mg/kg/injection, schedule: Q04DX003 (ip), vehicle: saline with Tween-80
[5] = dose: 400.0 mg/kg/injection, schedule: Q04DX003 (ip), vehicle: saline with Tween-80
[6] = dose: 100.0 mg/kg/injection, schedule: Q01DX009 (ip), vehicle: Klucel (hydroxypropylcellulose) (HPC)
[7] = dose: 100.0 mg/kg/injection, schedule: Q04DX002 (ip), vehicle: Klucel (hydroxypropylcellulose) (HPC)
[8] = dose: 200.0 mg/kg/injection, schedule: Q01DX009 (ip), vehicle: Klucel (hydroxypropylcellulose) (HPC)
[9] = dose: 200.0 mg/kg/injection, schedule: Q04DX002 (ip), vehicle: Klucel (hydroxypropylcellulose) (HPC)
[10] = dose: 400.0 mg/kg/injection, schedule: Q01DX009 (ip), vehicle: Klucel (hydroxypropylcellulose) (HPC)
[11] = dose: 400.0 mg/kg/injection, schedule: Q04DX002 (ip), vehicle: Klucel (hydroxypropylcellulose) (HPC)
[12] = dose: 100.0 mg/kg/injection, schedule: Q01DX001 (ip), vehicle: carboxymethylcellulose (CMC)
[13] = dose: 200.0 mg/kg/injection, schedule: Q01DX001 (ip), vehicle: carboxymethylcellulose (CMC)
[14] = dose: 400.0 mg/kg/injection, schedule: Q01DX001 (ip), vehicle: carboxymethylcellulose (CMC)
[15] = dose: 100.0 mg/kg/injection, schedule: Q01DX001 (ip), vehicle: saline
[16] = dose: 200.0 mg/kg/injection, schedule: Q01DX001 (ip), vehicle: saline
[17] = dose: 400.0 mg/kg/injection, schedule: Q01DX001 (ip), vehicle: saline
[18] = dose: 100.0 mg/kg/injection, schedule: Q01DX001 (ip), vehicle: Klucel (hydroxypropylcellulose) (HPC)
[19] = dose: 200.0 mg/kg/injection, schedule: Q01DX001 (ip), vehicle: Klucel (hydroxypropylcellulose) (HPC)
[20] = dose: 400.0 mg/kg/injection, schedule: Q01DX001 (ip), vehicle: Klucel (hydroxypropylcellulose) (HPC)
[21] = dose: 100.0 mg/kg/injection, schedule: Q04DX003 (ip), vehicle: saline
[22] = dose: 200.0 mg/kg/injection, schedule: Q04DX003 (ip), vehicle: saline
[23] = dose: 400.0 mg/kg/injection, schedule: Q04DX003 (ip), vehicle: saline
[24] = dose: 100.0 mg/kg/injection, schedule: Q04DX003 (ip), vehicle: Klucel (hydroxypropylcellulose) (HPC)
[25] = dose: 200.0 mg/kg/injection, schedule: Q04DX003 (ip), vehicle: Klucel (hydroxypropylcellulose) (HPC)
[26] = dose: 400.0 mg/kg/injection, schedule: Q04DX003 (ip), vehicle: Klucel (hydroxypropylcellulose) (HPC)

Measured: T/C

CNC(=S)N/N=C1/C(=N\NC(=S)NC)C(=O)OC1C(O)CO (centres undefined)
inactive: dose: 100.0 mg/kg/injection, schedule: Q01DX001 (ip), vehicle: other 93 % of control | [1] 98 % of control | [2] 100 % of control | dose: 200.0 mg/kg/injection, schedule: Q01DX001 (ip), vehicle: other 95 % of control | [3] 112 % of control | [4] 89 % of control | dose: 400.0 mg/kg/injection, schedule: Q01DX001 (ip), vehicle: other 90 % of control | [5] 91 % of control

Nc1ccc(C(=O)c2ccc(N)cc2)cc1
inactive: [6] 98 % of control | [7] 107 % of control | [8] 120 % of control | [9] 104 % of control | [10] 106 % of control | [11] 96 % of control

CC(C)(C)O[Si](OCC(F)(F)C(F)(F)C(F)(F)C(F)(F)C(F)(F)C(F)F)(OCC(F)(F)C(F)(F)C(F)(F)C(F)(F)C(F)(F)C(F)F)OC(C)(C)C
inactive: dose: 50.0 mg/kg/injection, schedule: Q01DX001 (ip), vehicle: carboxymethylcellulose (CMC) 100 % of control | [12] 94 % of control | [13] 94 % of control | [14] 94 % of control

CCOC(=O)CNc1cccc(C)c1C
inactive: [7] 100 % of control | [9] 102 % of control | [11] 100 % of control

O=c1cc(N2CCOCC2)nc2ccccn12
inactive: [12] 100 % of control | [13] 96 % of control | [14] 102 % of control

COc1cc(NC(=O)c2ccc(C(=O)Nc3cc(OC)cc4cccnc34)cc2)c2ncccc2c1
inactive: [15] 94 % of control | [16] 100 % of control | [17] 103 % of control

O=C(O)c1ccccc1Nc1ccccc1
inactive: [18] 102 % of control | [19] 102 % of control | [20] 97 % of control

Cc1ccc(NN)c(Br)c1
inactive: [21] 104 % of control | [22] 106 % of control | [23] 101 % of control

Nc1nc(CNc2ccc(Cl)cc2)nc(Nc2ccccc2)n1
inactive: [2] 93 % of control | [4] 89 % of control | [5] 89 % of control

O=C(NCCBr)Nc1cccc2c1Cc1ccccc1-2
inactive: [6] 105 % of control | [24] 95 % of control | [8] 96 % of control | [25] 95 % of control | [10] 94 % of control | [26] 97 % of control

O=P(Oc1ccccc1)(Oc1ccccc1)C(Nc1ccccc1)c1cccnc1 (centres undefined)
inactive: [2] 89 % of control | [4] 103 % of control

Cc1ccccc1C[P+](c1ccccc1)(c1ccccc1)c1ccccc1
inactive: dose: 12.5 mg/kg/injection, schedule: Q01DX009 (ip), vehicle: acetone 101 % of control | dose: 12.5 mg/kg/injection, schedule: Q04DX003 (ip), vehicle: saline 96 % of control | dose: 25.0 mg/kg/injection, schedule: Q04DX003 (ip), vehicle: saline 102 % of control | dose: 50.0 mg/kg/injection, schedule: Q04DX003 (ip), vehicle: saline 106 % of control

CCOC(=O)Nc1ccc(F)cc1OC
inactive: dose: 100.0 mg/kg/injection, schedule: Q04DX002 (ip), vehicle: other 107 % of control | dose: 200.0 mg/kg/injection, schedule: Q04DX002 (ip), vehicle: other 104 % of control | dose: 400.0 mg/kg/injection, schedule: Q04DX002 (ip), vehicle: other 96 % of control

O=C(CCl)N1CCC(C(O)c2cc3ccccc3n2S(=O)(=O)c2ccccc2)CC1 (centres undefined)
inactive: dose: 100.0 mg/kg/injection, schedule: Q04DX002 (ip), vehicle: saline with Tween-80 94 % of control | dose: 200.0 mg/kg/injection, schedule: Q04DX002 (ip), vehicle: saline with Tween-80 94 % of control | dose: 400.0 mg/kg/injection, schedule: Q04DX002 (ip), vehicle: saline with Tween-80 97 % of control

Clc1ccc(SCNCc2ccccc2)cc1
inactive: [15] 100 % of control | [16] 94 % of control | [17] 96 % of control

CCC(C)(C(=O)O)C(=O)O
inactive: [15] 103 % of control

CCC1CCNCC1
inactive: dose: 25.0 mg/kg/injection, schedule: Q01DX009 (ip), vehicle: saline 113 % of control | dose: 50.0 mg/kg/injection, schedule: Q01DX009 (ip), vehicle: saline 102 % of control

CC(C)(C)c1cccc(C(C)(C)C)c1O
inactive: [21] 102 % of control | [22] 98 % of control | [23] 90 % of control

Cc1cc([N+](=O)[O-])cc(Cl)n1
inactive: [18] 97 % of control | [19] 102 % of control | [20] 100 % of control

CNC(=O)Nc1ccccc1C(=O)OC
inactive: [6] 100 % of control | [24] 97 % of control | [8] 98 % of control | [25] 97 % of control | [10] 98 % of control | [26] 101 % of control

Cc1c(C(=O)O)c(C)c([N+](=O)[O-])c(C)c1[N+](=O)[O-]
inactive: dose: 50.0 mg/kg/injection, schedule: Q04DX003 (ip), vehicle: saline with Tween-80 95 % of control | [24] 90 % of control | [2] 97 % of control | [25] 95 % of control | [4] 97 % of control | [26] 93 % of control

CC(C)(C)C1COP(=S)(c2ccccc2)OC1 (centres undefined)
inactive: [24] 96 % of control

CC(C(=O)c1ccccc1)C(O)(C(F)(F)Cl)C(F)(F)Cl (centres undefined)
inactive: [24] 91 % of control | [25] 91 % of control | [26] 91 % of control

COc1ccc(/C=C(\C#N)c2cccc3ccccc23)cc1
inactive: [24] 98 % of control | [25] 105 % of control | [26] 90 % of control

N#CC(/C=C/c1ccccc1)NCC(O)c1ccccc1 (centres undefined)
inactive: dose: 100.0 mg/kg/injection, schedule: Q01DX009 (ip), vehicle: saline sonified 95 % of control | dose: 200.0 mg/kg/injection, schedule: Q01DX009 (ip), vehicle: saline sonified 95 % of control | dose: 400.0 mg/kg/injection, schedule: Q01DX009 (ip), vehicle: saline sonified 95 % of control

C=C1[C@@H](C)[C@H]2[C@H](Cc3ccccc3)NC(=O)[C@]23OC(=O)/C=C/[C@H](O)CCC[C@@H](C)C/C=C/[C@H]3[C@@H]1O
inactive: dose: 4.0 mg/kg/injection, schedule: Q04DX002 (ip), vehicle: saline 112 % of control | dose: 8.0 mg/kg/injection, schedule: Q04DX002 (ip), vehicle: saline 98 % of control | dose: 16.0 mg/kg/injection, schedule: Q04DX002 (ip), vehicle: saline 109 % of control | dose: 32.0 mg/kg/injection, schedule: Q04DX002 (ip), vehicle: saline 91 % of control

Cc1ccccc1OCCCCCl
inactive: [1] 95 % of control | [2] 97 % of control | [3] 88 % of control | [4] 92 % of control | dose: 400.0 mg/kg/injection, schedule: Q01DX009 (ip), vehicle: saline with Tween-80 89 % of control | [5] 100 % of control

CCOC(=O)N/N=C/c1c(F)cccc1Cl
inactive: dose: 75.0 mg/kg/injection, schedule: Q01DX001 (ip), vehicle: carboxymethylcellulose (CMC) 101 % of control | dose: 150.0 mg/kg/injection, schedule: Q01DX001 (ip), vehicle: carboxymethylcellulose (CMC) 106 % of control | dose: 300.0 mg/kg/injection, schedule: Q01DX001 (ip), vehicle: carboxymethylcellulose (CMC) 101 % of control

COc1ccc(OC)c(/C=C/c2ccc3ccccc3[n+]2C)c1
inactive: dose: 5.0 mg/kg/injection, schedule: Q04DX003 (ip), vehicle: saline with Tween-80 110 % of control | dose: 10.0 mg/kg/injection, schedule: Q04DX003 (ip), vehicle: saline with Tween-80 111 % of control | dose: 20.0 mg/kg/injection, schedule: Q04DX003 (ip), vehicle: saline with Tween-80 117 % of control
